Legend:
bedstraw = assay: Test B pre/postemergence bedstraw; type: in vivo, Galium aparine
In short: (§1)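 Response is a visual 0-to-10 score relative to untreated plants, where 0 means no effect and 10 means complete control, taken twelve to sixteen days after application. Treatments went onto soil at planting and onto foliage of 1- to 4-leaf plants, using a surfactant-containing non-phytotoxic solvent.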

sugar beet = assay: Test B pre/postemergence sugar beet; type: in vivo, Beta vulgaris
In short: as §1

wheat = assay: Test B pre/postemergence wheat; type: in vivo, Triticum aestivum
In short: as §1

wild oat = assay: Test B pre/postemergence wild oat; type: in vivo, Avena fatua
In short: as §1

giant foxtail = assay: Test B pre/postemergence giant foxtail; type: in vivo, Setaria faberii
In short: as §1

pigweed = assay: Test B pre/postemergence pigweed; type: in vivo, Amaranthus retroflexus
In short: as §1

blackgrass = assay: Test B pre/postemergence blackgrass; type: in vivo, Alopecurus myosuroides
In short: as §1

velvetleaf = assay: Test B pre/postemergence velvetleaf; type: in vivo, Abutilon theophrasti
In short: as §1

purple nutsedge = assay: Test B pre/postemergence purple nutsedge; type: in vivo, Cyperus rotundus
In short: as §1

morningglory = assay: Test B pre/postemergence morningglory; type: in vivo, Ipomoea hederacea
In short: as §1

rape = assay: Test B pre/postemergence rape; type: in vivo, Brassica napus
In short: as §1

bamyardgrass = assay: Test B flood test barnyardgrass; type: in vivo, Echinochloa crus-galli
In short: (§2)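 Flood test on plants grown to the 2-leaf stage; treated plants kept in greenhouse twelve to sixteen days, then visually rated against controls on a 0 (no effect) to 10 (complete control) scale.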

smallflower flatsedge = assay: Test B flood test smallflower flatsedge; type: in vivo, Cyperus difformis
In short: as §2

soybean = assay: Test B pre/postemergence soybean; type: in vivo, Glycine max
In short: as §1

rice = assay: Test B flood test rice; type: in vivo, Oryza sativa
In short: as §2

duck salad = assay: Test B flood test duck salad; type: in vivo, Heteranthera limosa
In short: as §2

[1] = Postemergence, Rate 31 g/ha, visual rating, scale 0 to 10 (0 no effect, 10 complete control)
[2] = Preemergence, Rate 31 g/ha, visual rating, scale 0 to 10 (0 no effect, 10 complete control)
[3] = Preemergence, Rate 62 g/ha, scale of 0 to 10 where 0 is no effect and 10 is complete control
[4] = Preemergence, Rate 250 g/ha, scale of 0 to 10 where 0 is no effect and 10 is complete control
[5] = Rate 62 g/ha, Postemergence, scale 0 to 10 (0 no effect, 10 complete control)
[6] = Rate 125 g/ha, Postemergence, scale of 0 to 10 where 0 is no effect and 10 is complete control
[7] = Rate 125 g/ha, Preemergence, scale of 0 to 10 where 0 is no effect and 10 is complete control
[8] = Rate 250 g/ha, Postemergence, scale of 0 to 10 where 0 is no effect and 10 is complete control
[9] = Rate 31 g/ha, Pre-emergence section (flood test species), scale 0 to 10
[10] = Rate 62 g/ha, headed Pre-emergence (flood test species), scale 0 to 10 (0 no effect, 10 complete control)
[11] = Rate 125 g/ha, Pre-emergence, flood test species, scale 0 to 10 where 0 is no effect and 10 is complete control
[12] = Rate 250 g/ha, Pre-emergence, flood-test species, scale 0 to 10, 0 is no effect, 10 is complete control

## CCOCn1c(=O)on(C(=O)N(c2ccc(F)cc2)C(C)C)c1=O [Compound 295]
bedstraw; [1]
  Bedstraw plant response rating: 0
bedstraw; [2]
  Bedstraw plant response rating: 0
bedstraw; [3]
  Bedstraw plant response rating: 0
bedstraw; [4]
  Bedstraw plant response rating: 0
bedstraw; [5]
  Bedstraw plant response rating: 0
bedstraw; [6]
  Bedstraw plant response rating: 4
bedstraw; [7]
  Bedstraw plant response rating: 0
bedstraw; [8]
  Plant response rating, Bedstraw: 4
Sugar beet; [1]
  Sugarbeets plant response rating: 0
Sugar beet; [2]
  Sugarbeets plant response rating: 0
Sugar beet; [3]
  Sugarbeets plant response rating: 0
Sugar beet; [4]
  Sugarbeets plant response rating: 3
Sugar beet; [5]
  Sugarbeets plant response rating: 0
Sugar beet; [6]
  Sugarbeets plant response rating: 0
Sugar beet; [7]
  Sugarbeets plant response rating: 0
Sugar beet; [8]
  Plant response rating, Sugarbeets: 0
wheat; [1]
  Wheat plant response rating: 0
wheat; [2]
  Wheat plant response rating: 0
wheat; [3]
  Wheat plant response rating: 0
wheat; [4]
  Wheat plant response rating: 6
wheat; [5]
  Wheat plant response rating: 0
wheat; [6]
  Wheat plant response rating: 0
wheat; [7]
  Wheat plant response rating: 3
wheat; [8]
  Plant response rating, Wheat: 3
Wild oat; [1]
  Wild oats plant response rating: 0
Wild oat; [2]
  Wild oats plant response rating: 0
Wild oat; [3]
  Wild oats plant response rating: 2
Wild oat; [4]
  Wild oats plant response rating: 9
Wild oat; [5]
  Wild oats plant response rating: 0
Wild oat; [6]
  Wild oats plant response rating: 0
Wild oat; [8]
  Plant response rating, Wild oats: 2
Giant foxtail; [1]
  Giant foxtail plant response rating: 0
Giant foxtail; [2]
  Giant foxtail plant response rating: 8
Giant foxtail; [3]
  Giant foxtail plant response rating: 8
Giant foxtail; [4]
  Giant foxtail plant response rating: 10
Giant foxtail; [5]
  Giant foxtail plant response rating: 0
Giant foxtail; [6]
  Giant foxtail plant response rating: 6
Giant foxtail; [7]
  Giant foxtail plant response rating: 10
Giant foxtail; [8]
  Plant response rating, Giant foxtail: 9
pigweed; [1]
  Redroot pigweed plant response rating: 0
pigweed; [2]
  Redroot pigweed plant response rating: 0
pigweed; [3]
  Redroot pigweed plant response rating: 3
pigweed; [4]
  Redroot pigweed plant response rating: 6
pigweed; [5]
  Redroot pigweed plant response rating: 0
pigweed; [6]
  Redroot pigweed plant response rating: 5
pigweed; [7]
  Redroot pigweed plant response rating: 6
pigweed; [8]
  Plant response rating, Redroot pigweed: 7
blackgrass; [1]
  Blackgrass plant response rating: 0
blackgrass; [2]
  Blackgrass plant response rating: 4
blackgrass; [3]
  Blackgrass plant response rating: 5
blackgrass; [4]
  Blackgrass plant response rating: 10
blackgrass; [5]
  Blackgrass plant response rating: 2
blackgrass; [6]
  Blackgrass plant response rating: 7
blackgrass; [7]
  Blackgrass plant response rating: 10
blackgrass; [8]
  Plant response rating, Blackgrass: 9
velvetleaf; [1]
  Velvetleaf plant response rating: 0
velvetleaf; [2]
  Velvetleaf plant response rating: 0
velvetleaf; [3]
  Velvetleaf plant response rating: 0
velvetleaf; [4]
  Velvetleaf plant response rating: 3
velvetleaf; [5]
  Velvetleaf plant response rating: 0
velvetleaf; [6]
  Velvetleaf plant response rating: 0
velvetleaf; [7]
  Velvetleaf plant response rating: 0
velvetleaf; [8]
  Plant response rating, Velvetleaf: 5
Purple nutsedge; [1]
  Nutsedge plant response rating: 0
Purple nutsedge; [2]
  Nutsedge plant response rating: 0
Purple nutsedge; [3]
  Nutsedge plant response rating: 0
Purple nutsedge; [4]
  Nutsedge plant response rating: 0
Purple nutsedge; [5]
  Nutsedge plant response rating: 0
Purple nutsedge; [6]
  Nutsedge plant response rating: 0
Purple nutsedge; [7]
  Nutsedge plant response rating: 0
Purple nutsedge; [8]
  Plant response rating, Nutsedge: 0
morningglory; [1]
  Morningglory plant response rating: 1
morningglory; [2]
  Morningglory plant response rating: 0
morningglory; [3]
  Morningglory plant response rating: 0
morningglory; [4]
  Morningglory plant response rating: 0
morningglory; [5]
  Morningglory plant response rating: 1
morningglory; [6]
  Morningglory plant response rating: 5
morningglory; [7]
  Morningglory plant response rating: 0
morningglory; [8]
  Plant response rating, Morningglory: 7
rape; [1]
  Rape plant response rating: 0
rape; [2]
  Rape plant response rating: 0
rape; [3]
  Rape plant response rating: 0
rape; [4]
  Rape plant response rating: 10
rape; [5]
  Rape plant response rating: 0
rape; [6]
  Rape plant response rating: 0
rape; [7]
  Rape plant response rating: 2
rape; [8]
  Plant response rating, Rape: 3
bamyardgrass; [9]
  Barnyardgrass plant response rating: 0
bamyardgrass; [10]
  Barnyardgrass plant response rating: 0
bamyardgrass; [11]
  Barnyardgrass plant response rating: 0
bamyardgrass; [12]
  Barnyardgrass plant response rating: 0
Smallflower flatsedge; [9]
  S. Flatsedge plant response rating: 0
Smallflower flatsedge; [10]
  S. Flatsedge plant response rating: 0
Smallflower flatsedge; [11]
  S. Flatsedge plant response rating: 0
Smallflower flatsedge; [12]
  S. Flatsedge plant response rating: 0
soybean; [1]
  Soybean plant response rating: 1
soybean; [2]
  Soybean plant response rating: 0
soybean; [3]
  Soybean plant response rating: 0
soybean; [4]
  Soybean plant response rating: 0
soybean; [5]
  Soybean plant response rating: 2
soybean; [6]
  Soybean plant response rating: 2
soybean; [7]
  Soybean plant response rating: 0
soybean; [8]
  Plant response rating, Soybean: 4
rice; [9]
  Rice plant response rating: 0
rice; [10]
  Rice plant response rating: 0
rice; [11]
  Rice plant response rating: 0
rice; [12]
  Rice plant response rating: 0
Duck salad; [9]
  Ducksalad plant response rating: 0
Duck salad; [10]
  Ducksalad plant response rating: 0
Duck salad; [11]
  Ducksalad plant response rating: 0
Duck salad; [12]
  Ducksalad plant response rating: 0

Source: patent US6737383B1, “Herbicidal oxadiazolidines” (priority 1999, dated 2004)
